Reference: patent US12553882B2, “Use of PAK4 and CRTC1 for treatment or diagnosis of brain degenerative disease” (CHUNGBUK NATIONAL UNIVERSITY INDUSTRY-ACADEMIC COOPERATION …, priority 2017, dated 2026)

Assays:
[1] = test system: rat CRTC1; test: Knock-down of CRTC1 by lentiviral shRNA, 6-OHDA rat model; type: in vivo; conditions: lentiviral rat CRTC1 hCMV-TurboGFP shRNA
[2] = test system: rat PAK4; test: Knock-down of PAK4 by lentiviral shRNA; type: in vivo; conditions: lentiviral rat PAK4 hCMV-TurboGFP shRNA
Text: Lentiviral rat PAK4 hCMV-TurboGFP shRNAs were purchased from Dharmacon and Open Biosystems. […] In this case, lentiviral shRNA control particles (#S-005000-01) were used as a control.
Protein extracts were obtained by conventional protein extraction methods, and immunoblots were visualized using HRP-conjugated secondary antibodies to IgG and chemiluminescent substrate (SuperSignal Ultra; Pierce). For quantitative analysis of protein levels, each band density of the immunoblots was quantitatively analyzed using the National Institutes of Health ImageJ software (National institutes of Health).
As a method for checking the action of PAK4 in Parkinson's disease, the present inventors injected a lent viral green fluorescent protein (GFP) small hairpin control (shCtrl) or lentiviral-GFP-shPAK4 construct into the right striatum of the rat brain to analyze the role of PAK4 in Parkinson's disease.

[3] = test system: TH-positive DA neurons; test: PF-3758309 stereotaxic injection into the SN, analysis of TH-positive neurons and fibers; type: in vivo, rat; conditions: PF-3758309 injected into the SN (substantia nigra)
Protocol: Mice were anesthetized with chloral hydrate (360 mg/kg, intraperitoneal [i.p.] injection) and then placed in a stereotaxic instrument (Kopf Instruments, Tujunga, CA, USA). The injection site coordinates in the right SN were 5.3 mm AP, 2.0 mm ML and 7.6 mm DV, from the bregma. Then, PF-3758309 (0.5 μg) was injected using a Hamilton syringe needle (33-gauge needle). In this case, the flow rate of the injection solution (2 ul) was allowed to be at 0.25 ul/min. After the injection, the syringe needle was maintained as it is for 5 more minutes to suppress the reflux of the solution. […]
Human brain tissue slices embedded with paraffin were deparaffinized with xylene. […] Samples were reacted with Alexa 488- or Alexa 594-conjugated secondary antibodies for fluorescence microscopic analysis. […] For Nissl-staining, SN tissue was fixed on a gelatin-coated slide and dried at room temperature for 1 hour, stained with 0.5% cresyl violet, dehydrated, covered with a cuff slip and analyzed using a bright field microscopy (Nikon).
The unbiased stereological analysis of the total number of TH+ neurons was performed using an optical fractionator method and Stereo Investigator software (MBF Bioscience, Williston, VT). The method is an assay which is not influenced by reference volume (SNpc) or size of counted elements (neurons). The total number of neurons was calculated by Optical Fractionator Equation. […]

## SH-111776-02: lentiviral rat CRTC1 shRNA, TCGCTAAATTTCCGCGGAT
[1]
  knock-down of the expression of CRTC1: effectively knocked down

## SH-082018-02: lentiviral rat PAK4 shRNA, TGATCGAAGCCTGTGTGTA, Dharmacon and Open Biosystems
[2]
  knock-down of the expression of PAK4: effectively knocked down

## SH-082018-01: lentiviral rat PAK4 shRNA, TTACGCAAGTCCATCTTCT, Dharmacon and Open Biosystems
[2]
  knock-down of the expression of PAK4: effectively knocked down

## Cc1nc(Nc2[nH]nc3c2CN(C(=O)N[C@H](CN(C)C)c2ccccc2)C3(C)C)c2sccc2n1 [PF-3758309]
[3]
  TH-positive DA neurons: decreased

## SH-111776-01: lentiviral rat CRTC1 shRNA, CACGATATACTCTGTCCAC
[1]
  knock-down of the expression of CRTC1: effectively knocked down
